From ChEMBL document CHEMBL1158862, “Insect Toxins from an Endophytic Fungus from Wintergreen” (J Nat Prod, 1997)

Assay: Toxicity in spruce budworm larvae assessed as mortality at 0.8 umol
Assay type: organism-based
Details: choristoneura fumiferana, in vivo, read-out: Activity

For CC(C)=CCCC(=O)c1cc2cc(O)ccc2o1, the mortality was 36%.
